Data from ChEMBL document CHEMBL3044788, “α-(Substituted-phenoxyacetoxy)-α-heterocyclylmethylphosphonates: synthesis, herbicidal activity, inhibition on pyruvate dehydrogenase complex (PDHc), and application as postemergent herbicide against broadleaf weeds” (J Agric Food Chem, 2013).

Columns and labels:
[1] = system: Eclipta prostrata; assay: Herbicidal activity against two to three-leaf stage Eclipta prostrata assessed as inhibition of plant growth at 150 g/ha in greenhouse by post-emergence herbicidal activity assay; assay type: functional; conditions: read-out: GI
[2] = system: Amaranthus blitum; assay: Herbicidal activity against Amaranthus blitum assessed as relative growth inhibition at 100 g/ha in greenhouse by post-emergence herbicidal activity assay; assay type: functional; conditions: read-out: GI
[3] = system: Polygonum aviculare; assay: Herbicidal activity against Polygonum aviculare assessed as relative growth inhibition at 100 g/ha in greenhouse by post-emergence herbicidal activity assay; assay type: functional; conditions: read-out: GI
[4] = system: Amaranthus spinosus; assay: Herbicidal activity against Amaranthus spinosus assessed as relative growth inhibition at 50 g/ha in greenhouse by postemergence herbicidal activity assay; assay type: functional; conditions: post-emergence, read-out: GI
[5] = system: Amaranthus blitum; assay: Herbicidal activity against Amaranthus blitum assessed as relative growth inhibition at 50 g/ha in greenhouse by post-emergence herbicidal activity assay; assay type: functional; conditions: read-out: GI
[6] = system: Brassica rapa subsp. oleifera; assay: Herbicidal activity against Brassica rapa subsp. oleifera assessed as inhibition of rape root growth at 450 g/ha by pre-emergence herbicidal activity assay; assay type: functional; conditions: read-out: GI
[7] = system: Oryza sativa; assay: Herbicidal activity against Oryza sativa (rice) assessed as relative growth inhibition at 450 g/ha in greenhouse by postemergence herbicidal activity assay; assay type: organism-based; conditions: in vivo, other
[8] = system: Zea mays; assay: Herbicidal activity against Zea mays (maize) assessed as relative growth inhibition at 450 g/ha in greenhouse by postemergence herbicidal activity assay; assay type: organism-based; conditions: in vivo, other
[9] = system: Amaranthus spinosus; assay: Herbicidal activity against Amaranthus spinosus assessed as relative growth inhibition at 450 g/ha in greenhouse by postemergence herbicidal activity assay; assay type: functional; conditions: post-emergence, read-out: GI
[10] = system: Chenopodium album; assay: Herbicidal activity against Chenopodium album assessed as relative growth inhibition at 450 g/ha in greenhouse by post-emergence herbicidal activity assay; assay type: functional; conditions: read-out: GI
[11] = system: Amaranthus blitum; assay: Herbicidal activity against Amaranthus blitum assessed as relative growth inhibition at 450 g/ha in greenhouse by post-emergence herbicidal activity assay; assay type: functional; conditions: read-out: GI
[12] = system: Polygonum aviculare; assay: Herbicidal activity against Polygonum aviculare assessed as relative growth inhibition at 450 g/ha in greenhouse by post-emergence herbicidal activity assay; assay type: functional; conditions: read-out: GI
[13] = system: Oryza sativa; assay: Herbicidal activity against Oryza sativa (rice) assessed as relative growth inhibition at 300 g/ha in greenhouse by postemergence herbicidal activity assay; assay type: organism-based; conditions: in vivo, other
[14] = system: Zea mays; assay: Herbicidal activity against Zea mays (maize) assessed as relative growth inhibition at 300 g/ha in greenhouse by postemergence herbicidal activity assay; assay type: organism-based; conditions: in vivo, other
[15] = system: Zea mays; assay: Herbicidal activity against Zea mays (maize) assessed as relative growth inhibition at 200 g/ha in greenhouse by postemergence herbicidal activity assay; assay type: organism-based; conditions: in vivo, other
[16] = system: Pisum sativum; assay: Herbicidal activity against 2 to 3 leaf stage Pisum sativum assessed as inhibition of plant growth at 450 g/ha in greenhouse by postemergence herbicidal activity assay; assay type: functional; conditions: Lathyrus oleraceus, post-emergence; read-out: GI
[17] = system: Amaranthus spinosus; assay: Herbicidal activity against Amaranthus spinosus assessed as relative growth inhibition at 200 g/ha in greenhouse by postemergence herbicidal activity assay; assay type: functional; conditions: post-emergence, read-out: GI
[18] = system: Polygonum aviculare; assay: Herbicidal activity against Polygonum aviculare assessed as relative growth inhibition at 200 g/ha in greenhouse by post-emergence herbicidal activity assay; assay type: functional; conditions: read-out: GI
[19] = system: Beta vulgaris; assay: Herbicidal activity against Beta vulgaris assessed as relative growth inhibition at 100 g/ha in greenhouse by post-emergence herbicidal activity assay; assay type: functional; conditions: read-out: GI
[20] = system: Oryza sativa; assay: Herbicidal activity against two to three-leaf stage Oryza sativa (rice) assessed as inhibition of plant growth at 450 g/ha in greenhouse by postemergence herbicidal activity assay; assay type: organism-based; conditions: in vivo, other
[21] = system: Echinochloa crus-galli; assay: Herbicidal activity against 2 to 3 leaf stage Echinochloa crus-galli (barnyard grass) assessed as inhibition of plant growth at 450 g/ha in greenhouse by postemergence herbicidal activity assay; assay type: functional; conditions: Echinochloa crus-galli, post-emergence; read-out: GI
[22] = system: Chenopodium album; assay: Herbicidal activity against Chenopodium album assessed as relative growth inhibition at 900 g/ha in greenhouse by post-emergence herbicidal activity assay; assay type: functional; conditions: read-out: GI
[23] = system: Amaranthus blitum; assay: Herbicidal activity against Amaranthus blitum assessed as relative growth inhibition at 900 g/ha in greenhouse by post-emergence herbicidal activity assay; assay type: functional; conditions: read-out: GI
[24] = system: Oryza sativa; assay: Herbicidal activity against Oryza sativa (rice) assessed as relative growth inhibition at 600 g/ha in greenhouse by postemergence herbicidal activity assay; assay type: organism-based; conditions: in vivo, other
[25] = system: Zea mays; assay: Herbicidal activity against Zea mays (maize) assessed as relative growth inhibition at 600 g/ha in greenhouse by postemergence herbicidal activity assay; assay type: organism-based; conditions: in vivo, other
[26] = system: Beta vulgaris; assay: Herbicidal activity against Beta vulgaris assessed as relative growth inhibition at 600 g/ha in greenhouse by post-emergence herbicidal activity assay; assay type: functional; conditions: read-out: GI
[27] = system: Amaranthus spinosus; assay: Herbicidal activity against Amaranthus spinosus assessed as relative growth inhibition at 600 g/ha in greenhouse by postemergence herbicidal activity assay; assay type: functional; conditions: post-emergence, read-out: GI
[28] = system: Oryza sativa; assay: Herbicidal activity against Oryza sativa (rice) assessed as relative growth inhibition at 1200 g/ha in greenhouse by postemergence herbicidal activity assay; assay type: organism-based; conditions: in vivo, other
[29] = system: Beta vulgaris; assay: Herbicidal activity against Beta vulgaris assessed as relative growth inhibition at 1200 g/ha in greenhouse by post-emergence herbicidal activity assay; assay type: functional; conditions: read-out: GI
[30] = system: Amaranthus spinosus; assay: Herbicidal activity against Amaranthus spinosus assessed as relative growth inhibition at 1200 g/ha in greenhouse by postemergence herbicidal activity assay; assay type: functional; conditions: post-emergence, read-out: GI
[31] = system: Amaranthus blitum; assay: Herbicidal activity against Amaranthus blitum assessed as relative growth inhibition at 1200 g/ha in greenhouse by post-emergence herbicidal activity assay; assay type: functional; conditions: read-out: GI
[32] = system: Beta vulgaris; assay: Herbicidal activity against Beta vulgaris assessed as relative growth inhibition at 900 g/ha in greenhouse by post-emergence herbicidal activity assay; assay type: functional; conditions: read-out: GI

Work on COP(=O)(OC)C(OC(=O)COc1ccc(Cl)cc1Cl)c1ccco1 (configuration not stated) yielded an inhibition of growth at 150 g/ha [1] of 90%, an inhibition of growth at 100 g/ha [2] of 100% and an inhibition of growth at 100 g/ha [3] of 83%. It also gave an inhibition of growth at 50 g/ha [4] of 60%, an inhibition of growth at 50 g/ha [5] of 100% and an inhibition of growth at 450 g/ha [6] of 94%. For the same compound, the “growth inhibition (GI)” value [7] was 0%, the “growth inhibition (GI)” value [8] was 0% and the inhibition of growth at 450 g/ha [9] was 100%. It also gave an inhibition of growth at 450 g/ha [10] of 100%, an inhibition of growth at 450 g/ha [11] of 100% and an inhibition of growth at 450 g/ha [12] of 100%. For the same compound, the “growth inhibition (GI)” value [13] was 0%, the “growth inhibition (GI)” value [14] was 0% and the “growth inhibition (GI)” value [15] was 0%. For the same compound, the inhibition of growth at 450 g/ha [16] was 90%, the inhibition of growth at 200 g/ha [17] was 98% and the inhibition of growth at 200 g/ha [18] was 85%. For the same compound, the inhibition of growth at 100 g/ha [19] was 80%, the “growth inhibition (GI)” value [20] was 10% and the inhibition of growth at 450 g/ha [21] was 25%. For the same compound, the inhibition of growth at 900 g/ha [22] was 100%, the inhibition of growth at 900 g/ha [23] was 100% and the “growth inhibition (GI)” value [24] was 0%. The “growth inhibition (GI)” value [25] was 0%, the inhibition of growth at 600 g/ha [26] was 100% and the inhibition of growth at 600 g/ha [27] was 100%. The “growth inhibition (GI)” value [28] was 20%, the inhibition of growth at 1200 g/ha [29] was 100% and the inhibition of growth at 1200 g/ha [30] was 100%. The inhibition of growth at 1200 g/ha [31] was 100% and the inhibition of growth at 900 g/ha [32] was 100%.
